From patent US20260200919A1, “SUBSTITUTED AMINOPYRIDINE COMPOUNDS AND METHODS OF TREATING DISEASE USING SAME” (Atavistik Bio, Inc., priority 2023, published 2026)

Assays:
[1] = target: T1, human recombinant kinase full-length AKT1 E17K (Homo sapiens, UniProt P31749, E17K); test: AKT1 E17K kinase assay (TR-FRET, Lance); format: biochemical; conditions: 0.6 nM AKT1 E17K, 50 nM Ulight-CREBtide, either 50 μM ATP or 2 mM ATP (not specified which), 60 min at RT
T1 construct: Purified human recombinant kinase full-length AKT1 E17K was expressed in insect cells; made in house; host or cells: insect cells
Description: AKT1 E17K kinase assay: Inhibitory effects of compounds on AKT1 E17K were undertaken in a 10-pt dose response kinase activity assay measuring phospho-peptide product formation based on TR-FRET signal as described in the following paragraph.
(§1) Purified human recombinant kinase full-length AKT1 E17K was expressed in insect cells and activated in vitro by PDPK1. Ulight™-CREBtide (PerkinElmer, catalog number TRF0107) was used as the peptide substrate. The reaction buffer consisted of 50 mM HEPES pH 7.5, 10 mM MgCl2, 0.01% Triton X-100, 0.01% BSA, 2 mM DTT, 0.6 nM AKT1 E17K, 50 nM. Ulight™ CREBtide and either 50 μM ATP or 2 mM ATP. The compound solution was prepared as 10 mM DMSO stock. […] Final DMSO concentration in the assay was 1%. […] The reaction was stopped after 60 min of incubation at RT by the addition of 10 μL of Detection Mix (PerkinElmer, #CR97-100) consisting of Europium-anti-phospho-CREB (Ser133) (Perkin Elmer, catalog numberTRF0200). Incubation with the detection mix for a further 60 min allowed binding of antibody to the phospho-Ulight™ CREBtide. The fluorescence emissions at 620 nm and 665 nm after excitation at […] was measured using Envision reader. The ratio of the emissions at 665 nm and at 620 nm provided the measure for the amount of phosphorylated CREBtide product of AKT1 E17K kinase activity.

[2] = target: T2, human recombinant kinase full-length wildtype AKT1 (Homo sapiens, UniProt P31749); test: AKT1 kinase assay (wildtype, TR-FRET, Lance); format: biochemical; conditions: 0.6 nM wildtype AKT1, 50 nM Ulight-CREBtide, either 50 μM ATP or 2 mM ATP (not specified which), 60 min at RT
T2 construct: Purified human recombinant kinase full-length wildtype AKT1 was expressed in insect cells; made in house; host or cells: insect cells
Description: AKT1 kinase assay: Inhibitory effects of compounds on wildtype AKT1 were undertaken in a 10-pt dose response kinase activity assay measuring phospho-peptide product formation based on TR-FRET signal as described in the following paragraph.
as §1, with “full-length wildtype” for “full-length”, “AKT1” for “AKT1 E17K”, “Ulight™—CREBtide” for “Ulight™-CREBtide”, “AKT1,” for “AKT1 E17K,”, “nM Ulight™-CREBtide” for “nM. Ulight™ CREBtide”

T1 sequence (P31749 whole entry E17K): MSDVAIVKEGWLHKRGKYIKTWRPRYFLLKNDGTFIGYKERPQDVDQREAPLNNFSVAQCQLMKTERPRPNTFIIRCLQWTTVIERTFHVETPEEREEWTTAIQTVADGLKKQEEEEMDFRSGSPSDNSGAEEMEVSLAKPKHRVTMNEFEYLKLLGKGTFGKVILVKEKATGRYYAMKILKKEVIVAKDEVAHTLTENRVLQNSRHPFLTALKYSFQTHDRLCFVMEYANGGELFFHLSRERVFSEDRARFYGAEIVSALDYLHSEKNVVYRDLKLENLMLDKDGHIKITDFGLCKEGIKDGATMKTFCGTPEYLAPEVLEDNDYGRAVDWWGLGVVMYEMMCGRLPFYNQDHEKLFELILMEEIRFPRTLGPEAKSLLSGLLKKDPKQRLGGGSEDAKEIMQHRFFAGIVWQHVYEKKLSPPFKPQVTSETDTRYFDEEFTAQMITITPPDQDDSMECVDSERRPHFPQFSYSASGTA
T2 sequence (P31749 whole entry): as the sequence (P31749 whole entry E17K) above, with K17E counted along it

IC50 [1]	IC50 [2]	Compound
50 to 200 nM	< 500 nM	Cc1cc(C(=O)O)c(F)cc1C(=O)Nc1ccc(-n2c(-c3cccnc3N)nc3ccc(-c4ccccc4)nc32)c(C)n1 [Compound 149]
50 to 200 nM	< 500 nM	Nc1ncccc1-c1nc2ccc(-c3ccccc3)cc2n1-c1ccc(CNC(=O)c2cccc(CC(=O)O)c2)cc1 [Compound 51, 2-(3-((4-(2-(2-aminopyridin-3-yl)-6-phenyl-1H-benzo[d]imidazol-1-yl)benzyl)carbamoyl)phenyl)acetic acid]
< 50 nM	< 500 nM	Nc1ncccc1-c1nc2ccc(-c3ccccc3)nc2n1-c1ccc(CNC(=O)c2ccc(CCC(=O)O)cc2)cc1 [Compound 40, 3-(4-((4-(2-(2-aminopyridin-3-yl)-5-phenyl-3H-imidazo[4,5-b]pyridin-3-yl)benzyl)carbamoyl)phenyl) propanoic acid]
> 500 nM	> 500 nM	Nc1ncccc1-c1nc2ccc(C(F)(F)F)cc2n1-c1ccc(CNC(=O)c2cccc(C(=O)O)c2F)cc1 [Compound 106, 3-((4-(2-(2-aminopyridin-3-yl)-6-(trifluoromethyl)-1H-benzo[d]imidazol-1-yl)benzyl)carbamoyl)-2-fluorobenzoic acid]
200 to 500 nM	< 500 nM	Nc1ncccc1-c1nc2cc(-c3cccnc3)cnc2n1-c1ccc(CNC(=O)c2ccc(CCC(=O)O)cc2)cc1 [Compound 92, 3-(4-((4-(2-(2-aminopyridin-3-yl)-6-(pyridin-3-yl)-3H-imidazo[4,5-b]pyridin-3-yl)benzyl)carbamoyl)phenyl) propanoic acid]
< 50 nM	< 500 nM	Cc1nc(NC(=O)c2ccc(C(=O)O)cc2)ccc1-n1c(-c2cccnc2N)nc2ccc(-c3ccccc3)nc21 [Compound 153]
200 to 500 nM	< 500 nM	Nc1ncccc1-c1nc2ccc(-c3ccccc3)nc2n1-c1ccc(NC(=O)c2cccc(C(=O)O)c2F)c(F)c1 [Compound 65, 3-((4-(2-(2-aminopyridin-3-yl)-5-phenyl-3H-imidazo[4,5-b]pyridin-3-yl)-2-fluorophenyl)carbamoyl)-2-fluorobenzoic acid]
200 to 500 nM	< 500 nM	Nc1ncccc1-c1nc2ccc(-c3cccnc3)nc2n1-c1ccc(CNC(=O)c2ccc(CC(=O)O)cc2)cc1 [Compound 95, 2-(4-((4-(2-(2-aminopyridin-3-yl)-5-(pyridin-3-yl)-3H-imidazo[4,5-b]pyridin-3-yl)benzyl)carbamoyl)phenyl) acetic acid]
< 50 nM	< 500 nM	Nc1ncccc1-c1nc2ccc(-c3ccccc3)nc2n1-c1ccc(NC(=O)c2cccc(CC(=O)O)c2)cc1 [Compound 56, 2-(3-((4-(2-(2-aminopyridin-3-yl)-5-phenyl-3H-imidazo[4,5-b]pyridin-3-yl)phenyl)carbamoyl)phenyl)acetic acid]
50 to 200 nM	< 500 nM	CC(=O)Nc1cccc(-c2ccc3nc(-c4cccnc4N)n(-c4ccc(CNC(=O)c5cccc(CC(=O)O)c5)cc4)c3n2)c1 [Compound 81, 2-(3-((4-(5-(3-acetamidophenyl)-2-(2-aminopyridin-3-yl)-3H-imidazo[4,5-b]pyridin-3-yl)benzyl)carbamoyl)phenyl) acetic acid]
> 500 nM	> 500 nM	Nc1ncccc1-c1nc2ccc(OC(F)(F)F)cc2n1-c1ccc(NC(=O)c2ccc(C(=O)O)cc2)nc1 [Compound 175, 4-((5-(2-(2-aminopyridin-3-yl)-6-(trifluoromethoxy)-1H-benzo[d]imidazol-1-yl)pyridin-2-yl)carbamoyl)benzoic acid]
> 500 nM	< 500 nM	Cc1cc(C(=O)O)ccc1C(=O)NCc1ccc(-n2c(-c3cccnc3N)nc3ccc(C(F)(F)F)cc32)cc1 [Compound 105, 4-((4-(2-(2-aminopyridin-3-yl)-6-(trifluoromethyl)-1H-benzo[d]imidazol-1-yl)benzyl)carbamoyl)-3-methylbenzoic acid]
> 500 nM	< 500 nM	CCNC(=O)Cc1cccc(C(=O)NCc2ccc(-n3c(-c4cccnc4N)nc4ccc(-c5ccccc5)nc43)cc2)c1 [Compound 44, N-(4-(2-(2-aminopyridin-3-yl)-5-phenyl-3H-imidazo[4,5-b]pyridin-3-yl)benzyl)-3-(2-(ethylamino)-2-oxoethyl)benzamide]
> 500 nM	> 500 nM	CC(C(=O)O)c1cccc(C(=O)NCc2ccc(-n3c(-c4cccnc4N)nc4ccc(-c5ccccc5)nc43)cc2)n1 (stereo not drawn) [Compound 38, 2-(6-((4-(2-(2-aminopyridin-3-yl)-5-phenyl-3H-imidazo[4,5-b]pyridin-3-yl)benzyl)carbamoyl)pyridin-2-yl) propanoic acid]
200 to 500 nM	< 500 nM	CC(=O)Nc1cccc(-c2cnc3c(c2)nc(-c2cccnc2N)n3-c2ccc(CNC(=O)c3cccc(CC(=O)O)c3)cc2)c1 [Compound 83, 2-(3-((4-(6-(3-acetamidophenyl)-2-(2-aminopyridin-3-yl)-3H-imidazo[4,5-b]pyridin-3-yl)benzyl)carbamoyl)phenyl) acetic acid]
> 500 nM	> 500 nM	Cc1cc(C(=O)Nc2ccc(-n3c(-c4cccnc4N)nc4ccc(-c5ccccc5)nc43)nc2C)ccc1C(=O)O [Compound 181, 4-((6-(2-(2-aminopyridin-3-yl)-5-phenyl-3H-imidazo[4,5-b]pyridin-3-yl)-2-methylpyridin-3-yl)carbamoyl)-2-methylbenzoic acid]
50 to 200 nM	< 500 nM	Nc1ncccc1-c1nc2ccc(-c3ccccc3)nc2n1-c1ccc(NC(=O)c2cc(F)c(C(=O)O)cc2F)nc1 [Compound 152]
< 50 nM	< 500 nM	Nc1ncccc1-c1nc2ccc(-c3ccccc3)nc2n1-c1ccc(NC(=O)c2ccc(C(=O)O)cc2)nc1 [Compound 59, 4-((5-(2-(2-aminopyridin-3-yl)-5-phenyl-3H-imidazo[4,5-b]pyridin-3-yl)pyridin-2-yl)carbamoyl)benzoic acid]
50 to 200 nM	< 500 nM	Nc1ncccc1-c1nc2cc(-c3cccc(NC(=O)c4ccccc4)c3)cnc2n1-c1ccc(CNC(=O)c2cccc(CC(=O)O)c2)cc1 [Compound 85, 2-(3-((4-(2-(2-aminopyridin-3-yl)-6-(3-benzamidophenyl)-3H-imidazo[4,5-b]pyridin-3-yl)benzyl)carbamoyl)phenyl) acetic acid]
200 to 500 nM	< 500 nM	CC(c1ccc(C(=O)O)cc1)N1CCC(c2ccc(-n3c(-c4cccnc4N)nc4ccc(-c5ccccc5)nc43)cc2)CC1 (stereo not drawn) [Compound 169, 4-(1-(4-(4-(2-(2-aminopyridin-3-yl)-5-phenyl-3H-imidazo[4,5-b]pyridin-3-yl)phenyl)piperidin-1-yl)ethyl)benzoic acid]
< 50 nM	< 500 nM	Nc1ncccc1-c1nc2ccc(-c3ccccc3)nc2n1-c1ccc(NC(=O)c2cc(F)c(C(=O)O)c(F)c2)nc1 [Compound 150]
> 500 nM	> 500 nM	CC(C)Oc1ccc2nc(-c3cccnc3N)n(-c3ccc(NC(=O)c4ccc(C(=O)O)cc4)nc3)c2c1 [Compound 176, 4-[[5-[2-(2-amino-3-pyridyl)-6-isopropoxy-benzimidazol-1-yl]-2-pyridyl]carbamoyl]benzoic acid]
< 50 nM	< 500 nM	Nc1ncccc1-c1nc2ccc(-c3ccccc3)nc2n1-c1ccc(C2CN(Cc3cc(O)c(C(=O)O)c(F)c3)C2)cc1 [Compound 185, 4-((3-(4-(2-(2-aminopyridin-3-yl)-5-phenyl-3H-imidazo[4,5-b]pyridin-3-yl)phenyl)azetidin-1-yl)methyl)-2-fluoro-6-hydroxybenzoic acid]
50 to 200 nM	< 500 nM	CC(c1ccc(C(=O)O)c(F)c1)N1CC(c2ccc(-n3c(-c4cccnc4N)nc4ccc(-c5ccccc5)nc43)cc2)C1 (stereo not drawn) [Compound 163]
